# Measured values from patent US12661338B2, “Heterocyclic compounds as modulators of beta-catenin / TCF4 interaction” (AGENCY FOR SCIENCE, TECHNOLOGY AND RESEARCH, priority 2019, dated 2026).
# Where two headings read alike, the source gives them in different places.
# Key:
# [1] = test system: Wnt signalling (TOPFlash reporter, STF cells); assay: Wnt STF TOPFlash reporter dose response (Wnt3A-stimulated); type: cell-based
# Procedure: Wnt STF reporter cells (HEK 293 cells stably transfected with TOPFlash reporter) and STF3A reporter cells (STF cells with constitutive secretion of Wnt3A) were kind gifts from David Virshup (Duke-NUS Graduate Medical School, Singapore). HCT116, DLD-1, and SW480 cell lines were obtained from ATCC. The Hippo pathway TEAD reporter (cat. #60618) and Myc signalling pathway reporter (cat. #60520) cells lines were purchased from BPS Bioscience, Inc.
# (§1) The Wnt STF reporter cells were seeded as 20,000 cells in 100 μL culture medium per well in 96-well plates (Corning cat. #3903, Falcon cat. #353072). The next day, 5-fold dilutions of the compounds in DMSO were added to the cells at a final concentration of 1% DMSO. The cells were also stimulated with 500 ng/mL recombinant human Wnt3A (RnD systems, cat. #5036-WN-010). After 24 hr incubation, the viability of the cells was determined with cell counting kit-8 (CCK-8, Dojindo cat. #CK04) cell viability reagent according to the manufacturer's protocol while the TOPFlash reporter activity was determined with Steady-Glo luciferase reagent.
# (§2) The average signal from DMSO treated wells was calculated for each plate, and the signal from each treatment well was normalized against the average DMSO signal from the respective plate. The normalized values were plotted against the concentrations tested using GraphPad Prism 5, and the EC50 values were determined through either three- or four-parameter nonlinear regression.
# STF cells = assay: Viability (toxicity) of STF reporter cells, CCK-8; type: cell-based; conditions: Table 3; STF reporter cell line
# Procedure: as §1, §2
# β-cat-ECAD interaction = assay: Co-immunoprecipitation of β-cat and ECAD in HCT116 cells; type: cell-based; conditions: 18 hr
# Procedure: HCT116 cells were treated for 18 hr with compounds at the indicated concentrations. Cells were lysed on ice in lysis buffer containing 20 mM HEPES, pH 7.5, 137 mM NaCl, 1.5 mM MgCl2, 1 mM EGTA, 1 mM dithiothreitol (DTT), 1% Triton X-100, 10% glycerol, cOmplete protease inhibitor cocktail (Roche cat. #11697498001), and 1 mM Na3VO4. Each sample of cleared protein lysate was incubated overnight at 4° C. with 4 μg anti-β-cat antibody (Sigma cat. #C7207) followed by 1 hr incubation with a 50 μL slurry of Dynabeads Protein G (Invitrogen cat. #10004D) at 4° C. The beads were then washed three times with lysis buffer at 4° C., and the bound protein was eluted by heating the beads with 30 μL (per sample) of SDS sample buffer at 95° C. for 7 min. protein was resolved by SDS-PAGE and blotted onto PVDF membrane (Millipore cat. #IPVH00010). Primary antibodies were incubated overnight at 4° C. and the blots were detected with either IRDye 800CW goat anti-rabbit antibody (LI-COR cat. #926-32211) or IRDye 680RD goat anti-mouse antibody (LI-COR cat. #926-68070) at 1:5000 dilution. Signals were visualized with the LI-COR Odyssey CLx imaging system and bands were quantified using LI-COR Image Studio data analysis software. […]
# HCT116 cells = assay: Colony formation assay; type: cell-based; conditions: HCT116, 30 μM, 7 days
# Procedure: FIG. 4 depicts the inhibit growth by hit compounds and their effects on stemness of Wnt driven cells. (FIG. 4A) Growth curves of HCT116 cells treated daily with compounds at 10 μM. One-way repeated measures ANOVA with Dunnett's multiple comparison test was carried out to determine the significance between compound treatment and DMSO control. *P<0.05, ***P<0.001. (FIG. 4B) Effects of hit compounds on colony formation of HCT116 cells. HCT116 cells were grown in 6-well plates and treated with either DMSO or the compounds at 30 μM for 7 days, following which the cells were fixed and stained with crystal violet. The number of colonies obtained were counted. Two-tailed Student's t-test was carried out between compound treatment and DMSO control. ***P<0.001. (FIG. 4C) Effects of hit compounds on spheroid formation of HCT116 cells. HCT116 cells were grown in ultra-low attachment 96-well plates and treated with either DMSO or the compounds at 30 µM for 14 days, following which the number of spheroids ≥200 μm in size was determined. Two-tailed Student's t-test was carried out between compound treatment and DMSO control. ***P<0.001, **P<0.01. Scale bar represents 1 mm. (FIG. 4D) NSG mice xenografted with HCT116 cells were treated with vehicle control (n=6) or 50 mg/kg GB1874 (n=6) via i.p. every other day for 2 weeks. Tumor volumes were monitored over time. […]
# HCT116 xenografts = assay: Mouse xenograft and compound treatment; type: in vivo; conditions: NSG mice, 50 mg/kg every other day i.p.
# Procedure: HCT 116 cells (1×10^6 cells per site) and were implanted subcutaneously into the right flanks of 5-7 weeks old NSG (NOD scid gamma) (Jackson Laboratory, stock no. 005557) mice. When tumours reached a size of 60-100 mm^3 in volume, the animals were randomised to either the treatment or control group. Mice in the treatment group were administered with compound GB1874 at 50 mg/kg every other day via intraperitoneal injection. Simultaneously animals in the control group were administered with the diluent in the absence of compound. Compound GB1874 was prepared by dissolving it in DMSO to a concentration of 60 mg/mL and diluting it in 5% PEG 300, 5% Tween-80 in saline to a final concentration of 3 mg/mL, 5% DMSO. The length and width of tumours were measured by caliper once every 2 days. Tumour volumes were estimated using the following modified ellipsoidal formula: Tumour volume=½(length×width^2). Mice were euthanized when tumours in the control group reaches 2000 mm^3.
# CRC1177 = assay: Viability of primary patient-derived colorectal cancer cell line; type: cell-based
# CRC2001 = assay: as above; type: cell-based
# CRC2255 = assay: as above; type: cell-based
smiles,measurement,setting,value
CCc1ccc(OCc2nnc(SC3CCCC3=O)n2C(C)c2ccccc2)cc1 (stereo not drawn) [GB1874],IC50,"[1]; Table 1, STF reporter cells, 500 ng/mL Wnt3A, 24 hr, read-out: IC50 Wnt (STF)",11 µM
same,IC50,"[1]; Table 3, STF reporter cell line, read-out: STF Inhibition IC50",6.8 µM
same,IC50,"[1]; unit M, read-out: STF IC50",6.8 µM
same,IC50,STF cells,66 µM
same,β-cat-ECAD interaction (co-IP),β-cat-ECAD interaction,minimal effect on the β-cat-ECAD interaction
same,colony forming efficiency,HCT116 cells,markedly reduce survival of the cancer stem-like cells
same,expression of cyclin D1 and Ki67 in xenograft tumours (IHC),HCT116 xenografts,"reduction in the expression of Wnt target gene, cyclin D1, as well as the proliferation marker, Ki67"
same,systemic toxicity in the mice (body weight),HCT116 xenografts; 2 weeks,minimal systemic toxicity
same,growth of HCT116 xenografts (tumour volume),"HCT116 xenografts; 2 weeks, 50 mg/kg",effectively inhibited the growth of HCT116 xenografts in vivo
same,EC50,CRC1177,19 µM
same,EC50,CRC2001,25 µM
same,EC50,CRC2255,20 µM
